Results reported in PMC11227536, “Modulation of the Meisenheimer complex metabolism of nitro-benzothiazinones by targeted C-6 substitution” (Communications Chemistry, 2024).
In brackets after ≈: the same amount, converted by molar mass.

What was measured:
[1] = tested on: Mycobacterium vaccae (JMRC:STI:10670); experiment: MIC determination; format: cell-based; settings: for MIC: Mycolicibacterium vaccae, n = 1; for Selectivity index: ratio between CC50 (HeLa) and MIC M. vaccae
Protocol: (§1) Supplementary Method 5: Biological Assays
(§2) Minimal inhibitory concentrations were determined against Mycobacterium vaccae (JMRC:STI:10670) and Mycobacterium smegmatis (JMRC:STH:00056). M. vaccae and M. smegmatis cultures were grown 48 h at 32 °C in a medium consisting of glycerol (1%), beef extract (0.5%), peptone from casein (0.5%) and sodium chloride (0.3%). Serial dilutions of the DMSO test item solutions (1 mg∙mL -1) were prepared at 100 µL scale in 96 well plates in Mueller Hinton broth starting at 200 µg∙mL -1 (highest) to cover a final concentration range of 100 to 0.05 µg∙mL -1. Each plate was equipped with a series of DMSO and ciprofloxacin dilutions as quality controls. 96 well plates were inoculated with 100 µL diluted culture (Mueller Hinton bullion) at a final concentration of 5∙10 5 and incubated at 37 °C for 42 h. Growth/no growth was visually inspected.
(§3) 2. Proliferation and cytotoxicity assay
(§4) Cells and culture conditions
(§5) The following cell lines and media were used:
(§6) Cell line Cell culture medium
(§7) Cells were grown in the appropriate cell culture medium supplemented with 10 mL/L ultraglutamine 1 […]
(§8) heat inactivated fetal bovine serum (GIBCO Life Technologies 10270-106) at 37 °C in 5% CO 2 in high density polyethylene flasks (NUNC 156340).
(§9) To decide if the compounds have an antiproliferative and/or a cytotoxic effect on human cells, cell death and retardation of cell proliferation were assessed. Under our experimental conditions, the optical density measured from the CellTiter-Blue® reagent and methylene blue assay is proportional to the […]
(§10) The test substances were dissolved in DMSO and further diluted in the cell culture medium. The adherent cells were harvested at the logarithmic growth phase after soft trypsinization using 0.25% trypsin in PBS containing 0.02% EDTA (Biochrom KG L2163). For each experiment, approximately 10,000 cells were seeded with 0.1 mL culture medium per well of the 96-well microplates (HUVEC: flat bottomed NUNC 167008, K-562: round bottomed NUNC 163320). To test the antiproliferative

[2] = tested on: Mycobacterium smegmatis (JMRC:STH:00056); experiment: MIC determination; format: cell-based; settings: Mycolicibacterium smegmatis; n = 1
Protocol: as §1
as §2, with “inspected. […]” for “inspected.”

[3] = Cytotoxicity assay; format: cell-based; settings: human, n = 4
Protocol: (§11) Supplementary Method 5: Biological Assays […]
as §3, §4, §5, §6, §7, §8, §9
as §10, with “To test the antiproliferative” left out
For the cytotoxicity assay, HeLa cells were preincubated for 48 hours without the test substances. To test the cytotoxic effect on HeLa, dilutions of the compounds were carried out carefully on the subconfluent monolayers of HeLa cells after the preincubation time. After incubation time, the cytolytic effect of compounds was analysed in comparison to the negative control. The 50% cytotoxic concentration (CC 50 ) was defined as the test compound concentration required for destruction of the cell monolayer by 50% compared to untreated control.
(§12) Cells were incubated with dilutions of the test substances in microplates for 72 hours at 37 °C in a humidified atmosphere and 5% CO 2. […]
(§13) cytotoxicity and the inhibition of cell proliferation. The number of viable cells was determined subsequent to staining with CellTiter-Blue® reagent or methylene blue. […]
(§14) HUVEC and HeLa cells: The adherent HUVEC and HeLa cells were fixed by glutaraldehyde (MERCK […]
(§15) gently washing, the stain was eluted by adding 0.2 mL of hydrochloric acid (0.33 M) to each well. The optical densities were measured at 660 nm (methylene blue) in SUNRISE microplate reader (TECAN).
(§16) General remarks: Signals from the methylene blue and CellTiter-Blue® reagent are proportional to the number of viable cells. A repeat determination has been conducted in all experiments, four replicates were assayed. The calculations of the different values of GI 50 and CC 50 were performed with the software

[4] = tested on: HUVEC; experiment: Proliferation assay; format: cell-based; settings: Homo sapiens, 72 h, n = 4
Protocol: as §11, §3, §4, §5, §6, §7, §8, §9
as §10, with “antiproliferative […]” for “antiproliferative”
(§17) effect of test compounds on HUVEC and K-562, the cells were incubated for 72 hours in plates prepared with control and different dilutions of test substances. […]
(§18) of proliferation compared to the untreated control. […]
as §12, §13, §14, §15, §16

[5] = tested on: K-562; experiment: Proliferation assay; format: cell-based; settings: Homo sapiens, K562; 72 h, n = 4
Protocol: as §11, §3, §4, §5, §6, §7, §8, §9
as §10, with “antiproliferative […]” for “antiproliferative”
as §17, §18, §12
cytotoxicity and the inhibition of cell proliferation. The number of viable cells was determined subsequent to staining with CellTiter-Blue® reagent or methylene blue.
K-562 cells: The influence of test substances on cell proliferation of K-562 was determined via the CellTiter-Blue® assay (PROMEGA). Briefly, viable cells are able to reduce the indicator dye resazurin […]
dye. Thus, formation of resorufin was followed by measuring absorption at 570 nm and subtracting absorption measured at 600 nm. […]
as §16

[6] = design: method as in PMID 28097740; settings: preclinical studies ref 12; cited from earlier work

SMILES	MIC [1] [µM]	Selectivity index [1]	MIC [2] [µM]	CC50 at 72 h [3] [µM]	GI50 [4] [µM]	GI50 [5] [µM]	HMC formation in vivo (in words) [6]
C[C@H]1COC2(CCN(c3nc(=O)c4cc(C(=O)NCCO)cc([N+](=O)[O-])c4s3)CC2)O1 [Compound 7d]	27.7 (≈ 12.5 µg/mL)	> 4	111 (≈ 50 µg/mL)	> 111	> 111	> 111	–
C[C@H]1COC2(CCN(c3nc(=O)c4cc(C(F)(F)F)cc([N+](=O)[O-])c4s3)CC2)O1 [Compound 1, reference compound]	0.004 (≈ 0.00173 µg/mL)	> 31248	0.058 (≈ 0.025 µg/mL)	> 116	> 116	> 116	significant hydride-Meisenheimer complex (HMC) formation in vivo
C[C@H]1COC2(CCN(c3nc(=O)c4cc(C(=O)OCCI)cc([N+](=O)[O-])c4s3)CC2)O1 [Compound 6e]	2.78 (≈ 1.56 µg/mL)	28	44.5 (≈ 25 µg/mL)	78.2 ± 1.4	30.8 ± 0.5	27.6 ± 0.9	–
CCOC(=O)c1cc([N+](=O)[O-])c2sc(N3CCC4(CC3)OC[C@H](C)O4)nc(=O)c2c1 [Compound 6b]	1.79 (≈ 0.779 µg/mL)	> 64	57.4 (≈ 25 µg/mL)	> 115	49.1 ± 1.1	50.7 ± 6.9	–
C[C@H]1COC2(CCN(c3nc(=O)c4cc(C(=O)OCCO)cc([N+](=O)[O-])c4s3)CC2)O1 [Compound 6d]	13.8 (≈ 6.23 µg/mL)	> 8	55.4 (≈ 25 µg/mL)	> 111	73.3 ± 4.2	17.9 ± 1.1	–
C[C@H]1COC2(CCN(c3nc(=O)c4cc(C5=NCCO5)cc([N+](=O)[O-])c4s3)CC2)O1 [Compound 7e]	14.5 (≈ 6.27 µg/mL)	> 8	28.9 (≈ 12.5 µg/mL)	> 116	> 116	> 116	–
CNC(=O)c1cc([N+](=O)[O-])c2sc(N3CCC4(CC3)OC[C@H](C)O4)nc(=O)c2c1 [Compound 7b]	59.5 (≈ 25 µg/mL)	> 2	119 (≈ 50 µg/mL)	> 119	> 119	> 119	–
C[C@H]1COC2(CCN(c3nc(=O)c4cc(C(N)=O)cc([N+](=O)[O-])c4s3)CC2)O1 [Compound 7a]	61.5 (≈ 25 µg/mL)	> 2	123 (≈ 50 µg/mL)	> 123	> 123	> 123	–
C[C@H]1COC2(CCN(c3nc(=O)c4cc(C(=O)OCCOC(=O)c5cc([N+](=O)[O-])c6sc(N7CCC8(CC7)OC[C@H](C)O8)nc(=O)c6c5)cc([N+](=O)[O-])c4s3)CC2)O1 [Compound 6f]	14.9 (≈ 12.5 µg/mL)	> 4	119 (≈ 100 µg/mL)	> 59.4	> 59	> 59	–
